Legend:
[1] = tested on: mice (MRL/LPR); test: Anti-lupus erythematosus activity; format: in vivo, mouse; conditions: 30 mg/kg topically twice per day, after 6 weeks
[2] = tested on: Human colon cancer cells (LS174J); test: Human colon cancer xenograft in nude mice, topical; conditions: day 30, about 30 μl of 5% solution (1.5 mg) topically applied
Source text: Human colon cancer cells (LS174J, 2-3 mm^3 of tumor tissue was used in each mouse) are subcutaneously xenografted into the front leg of nude mice (BALB).

[3] = tested on: Human breast cancer cells (BCAP-37); test: Human breast cancer xenograft in nude mice, topical; conditions: day 42; 30 μl of 5% (1.5 mg) topically every 8 hours from day 14; control 800 ± 100
Summary of the method: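 BCAP-37 tumour tissue (2-3 mm^3) was xenografted subcutaneously into the front leg of nude BALB mice, 7 per group. Compounds were applied topically as 30 μl of 5% solution (1.5 mg) in acetone or water.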

[4] = tested on: Chinese white rabbits; test: Malassezia-induced lesions similar to psoriasis; format: in vivo, rabbit; conditions: 5% aqueous solution twice per day, 10 days after application
Source text: Heavy suspensions of Malassezia [Rosenberg, E. W., et al., Mycopathologia, 72, 147-154 (1980)] were applied to the shaved skin on the backs of the Chinese white rabbits (n=4×6) twice (at 7 am and 7 pm) per day for 2 weeks, lesions similar to psoriasis resulted.

[5] = tested on: normal rats; test: Blood glucose in normal rats, transdermal; format: in vivo, rat
Summary of the method: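 Compounds equivalent to 20 mg/kg NSAIA were applied transdermally to a shaved ~1.5 cm^2 area of rat backs once daily at 8 am for 5 weeks (n=7). Non-fasting blood glucose was measured every 3 days at 3 pm from week 2 to week 5, and blood lipids at the end of week 5.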

[6] = tested on: rats (SLAC/GK, type 2 diabetes); test: Blood lipid in type 2 diabetes rats, transdermal; format: in vivo, rat
Summary of the method: (§1)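 GK type 2 diabetic rats (n=7) received the HPPs transdermally on a shaved ~1.5 cm^2 area of the back, at a dose equal to 20 mg/kg of NSAIAs, once daily for 5 weeks. Non-fasting blood glucose was measured every 3 days at 3 pm from week 2 to week 5, and blood lipids at the end of week 5.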

[7] = tested on: rats (SLAC/GK, type 2 diabetes); test: Blood glucose in type 2 diabetes rats, transdermal; format: in vivo, rat; conditions: diabetic rats (SLAC/GK)
Summary of the method: as §1

[8] = tested on: mice (SLAC:NOD-IDDM, type 1 diabetes); test: Blood glucose in type 1 diabetes mice, transdermal; format: in vivo, mouse
Summary of the method: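 NOD-IDDM type 1 diabetic mice (n=7) received prodrug transdermally on shaved back skin (~1.5 cm²), at a dose equivalent to 30 mg/kg NSAIA, once daily for 7 weeks. Non-fasted blood glucose was measured every 3 days at 3 pm from week 4 to week 7.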

[9] = tested on: normal rats; test: Blood glucose in normal rats, oral with food; format: in vivo, rat
[10] = tested on: rats (SLAC/GK, type 2 diabetes); test: Blood lipid in type 2 diabetes rats, oral with food; format: in vivo, rat
Summary of the method: (§2)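 Compounds (dosed equivalent to 20 mg/kg of NSAIAs) mixed in food and given orally daily for 5 weeks to rats (n=7). Non-fasting blood glucose measured every 3 days at 3 pm from week 2 to week 5; blood lipids measured at end of week 5.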

[11] = tested on: Chinese white rabbits; test: Autologous blood clot pulmonary embolization, thrombus propagation; format: in vivo, rabbit; conditions: 20 mg/kg topically, after 2 days
Experimental: Eighteen Chinese White rabbits weighing between 3.0 and 3.5 kg (aged 6-7 months) were selected and divided into three groups (control, P-1 and […] groups, n=6). One hour before the experiment, thrombi were made by aspirating venous blood (1 ml) into a sterilized bottle to clot. To avoid fragmentation and slow lysis, the autologous blood clots were stabilized in temperature-controlled (70° C.) distilled water for 10 min. After anesthesia, the femoral veins were exposed and distally isolated, and autologous blood clots (0.05 g/kg) were injected through an indwelling catheter (20 GA), which had been placed in the femoral vein isolated earlier. 50% acetone solution of diethylaminoethyl acetylsalicylate.acetylsalicylic acid salt (P-1, in acetone, 20 mg/kg) and diethylaminoethyl acetylsalicylsalicylate. acetylsalicylsalicylic acid salt (P-59, 20 mg/kg) were topically applied to the back of the rabbits. After 2 days, rabbits were euthanized with an excessive intravenous injection of sodium amobarbital (60 mg/kg). The lungs and hearts were isolated to observe whether thrombi were present in the pulmonary arteries. The lungs were immersed in 10% formalin for 24 h. Consecutive transverse sections along the obstructed pulmonary arteries were paraffin-embedded and stained with hematoxylin-eosine. […]

[12] = tested on: rats (SLAC/GK, type 2 diabetes); test: Blood glucose in type 2 diabetes rats, oral with food; format: in vivo, rat
Summary of the method: as §2

[13] = 1 hour after 50 mg/kg on the back of sheep, 10% aqueous solution
[14] = tested on: C57/BL6 mice, MPTP; test: MPTP Parkinson's disease mice: GSH and MDA in the substantia nigra; format: in vivo, mouse; conditions: MPTP + 30 mg/kg transdermally 14 days
Source text: (§3) The mice were divided into 2 groups.

[15] = tested on: spontaneously hypertensive and stroke prone rats (SLAC/SHRSP); test: Alleviation of the effects of strokes (treatment from 24 hours after operation); format: in vivo, rat; conditions: 50 mg/kg twice per day on the back from 24 hours after the operation
Experimental: (§4) Thrombosis was induced by electrical stimulation (1 mA for 3 minutes) of the carotid artery in spontaneously hypertensive and stroke prone rats (SLAC/SHRSP) by using a thrombosis formation instrument (YLS-14A, Shandong Academy of Medical Sciences, Shandong, China). The rats (Spragu Dawley, 25 weeks old, 380-450 g) were divided into 3 groups randomly, group A is the control group, groups B and C are aspirinamine-treated group. In group B, 100 mg/kg of aspirinamine citric acid salt (10% in water) was applied to the rats' back skin (˜5 cm^2, fur was cut off) 2 hour before the operation and 1 hour after the operation, then 50 mg/kg of the drug was applied to the back of rats twice per day. In group C, 50 mg/kg of aspirinamine was applied to the back of rats twice per day starting from 24 hours after the operation. The recovery of motor functions of rats was evaluated every day. The operation process is outlined in the Method section in the supporting online materials. […] The HPP of aspirin is the first drug which can reverses paralysis from post-stroke.

[16] = tested on: C57/BL6 mice, MPTP; test: MPTP Parkinson's disease mice: GABA and Glu in substantia nigra and striatum
Experimental: Group A mice were i.p. injected 0.4% sodium carboxymethylcellulos (15 ml/kg per day) for 7 days. Group B and C mice were i.p. injected N-methyl-4-phenyl-1,2,3,6-tetrahydropyridine (MPTP, 30 mg/kg per day) for 7 days. The mice were divided into 2 groups. […] All mice were killed after the last treatment and the brain tissues were quickly frozen at −80° C. […] The contents of GABA and Glu in the striatum and SN were shown by high performance amino acid auto-analyser.

[17] = tested on: spontaneously hypertensive and stroke prone rats (SLAC/SHRSP); test: Anti-stroke activity, carotid thrombosis by electrical stimulation (treated before operation); format: in vivo, rat; conditions: 100 mg/kg transdermally 2 hour before and 1 hour after operation, then 50 mg/kg twice per day
Experimental: as §4

[18] = tested on: C57/BL6 mice, MPTP; test: MPTP Parkinson's disease mice: DA, NA, 5-HT in the striatum; format: in vivo, mouse
Source text: as §3

[19] = tested on: cats with ocular hypertension; test: Intraocular pressure in cats with ocular hypertension; format: in vivo, cat; conditions: group B
Experimental: The ability of diethylaminoethyl acetylsalicylate.HCl to reduce intraocular pressure (IOP) was evaluated in cats with ocular hypertension produced by previously done laser trabeculoplastry. IOP was determined with a pneumatonometer after light corneal anesthesia with dilute proparacaine. 14 Cats were divided into 2 groups. Baseline IOP was determined prior to treatment with the test compound aqueous solution. […] In group B, 30 mg/kg of diethylaminoethyl acetylsalicylate.HCl the area around eye (outside) of cat trice per day for 10 days.

[20] = baseline, equal to 20 mg/kg of NSAIAs
[21] = end of the fifth week, equal to 20 mg/kg of NSAIAs once per day
[22] = end of the fifth week, equal to 20 mg/kg of NSAIAs every day
[23] = MPTP mice, 30 mg/kg transdermally once per day for 14 days
[24] = MPTP mice, 30 mg/kg transdermally to the neck once per day for 14 days

CC(=O)O.CC(C)Cc1ccc(C(C)C(=O)OCC2CCCNC2)cc1 (stereo not shown) [P-5, 3-piperidinemethyl 2-(ρ-isobutylphenyl) propionate.AcOH]
skin lesions and lupus nephritis [1]: all skin lesions and lupus nephritis were resolved
Tumor size [2]: 390 ± 110 mm^3
Tumor size [3]: 190 ± 50 mm^3
lesions similar to psoriasis [4]: the lesions were resolved

CC(=O)Oc1ccccc1C(=O)Oc1ccccc1C(=O)O.CCN(CC)CCOC(=O)c1ccccc1OC(=O)c1ccccc1OC(C)=O [P-59, diethylaminoethyl acetylsalicylsalicylate.acetylsalicylsalicylic acid salt]
Blood glucose, Average ([5]; normal rats (second Average line of Table 24), average second to fifth week, equal to 20 mg/kg of NSAIAs once per day): 7.3 ± 1 mmol/L
Blood glucose, Baseline ([5]; normal rats (second Baseline line of Table 24), baseline, equal to 20 mg/kg of NSAIAs): 7.2 ± 1 mmol/L
Cholesterol (HDL), Baseline [6, 20]: 1.6 ± 0.2 mmol/L
Cholesterol (total), Baseline [6, 20]: 7.6 ± 0.6 mmol/L
Triglycerides, Baseline [6, 20]: 5.6 ± 0.5 mmol/L
Cholesterol (HDL), Average [6, 21]: 1.6 ± 0.2 mmol/L
Cholesterol (total), Average [6, 21]: 5.1 ± 0.3 mmol/L
Triglycerides, Average [6, 21]: 1.9 ± 0.2 mmol/L
Blood glucose, Average ([7]; average second to fifth week, no fasting, equal to 20 mg/kg of NSAIAs once per day for 5 weeks): 8.7 ± 1 mmol/L
Blood glucose, Baseline ([7]; baseline, equal to 20 mg/kg of NSAIAs once per day): 16.3 ± 3 mmol/L
Blood glucose, Average ([8]; average fourth to seventh week, no fasting, equal to 30 mg/kg of NSAIAs once per day for 7 weeks): 8.7 ± 1 mmol/L
Blood glucose, Baseline ([8]; baseline, equal to 30 mg/kg of NSAIAs): 24.3 ± 3 mmol/L
Blood glucose, Normal rats, Average ([9]; average second to fifth week, equal to 20 mg/kg of NSAIAs every day): 7.3 ± 1 mmol/L
Blood glucose, Normal rats, Baseline [9, 20]: 7.5 ± 1 mmol/L
Cholesterol (HDL), Baseline [10, 20]: 1.9 ± 0.2 mmol/L
Cholesterol (total), Baseline [10, 20]: 7.7 ± 0.6 mmol/L
Triglycerides, Baseline [10, 20]: 5.4 ± 0.6 mmol/L
Cholesterol (HDL), Average [10, 22]: 1.8 ± 0.2 mmol/L
Cholesterol (total), Average [10, 22]: 5.7 ± 0.3 mmol/L
Triglycerides, Average [10, 22]: 2.7 ± 0.2 mmol/L
lung tissue and vascular walls (thrombus propagation) [11]: both lung tissue and vascular walls were normal
Blood glucose, Diabetic rats, Average ([12]; average second to fifth week, no fasting, equal to 20 mg/kg of NSAIAs every day for 5 weeks): 8.6 ± 1 mmol/L
Blood glucose, Diabetic rats, Baseline [12, 20]: 15.3 ± 3 mmol/L

CCN(CC)CCOC(=O)C(C)c1ccc(CC(C)C)cc1.O=C(O)CC(O)(CC(=O)O)C(=O)O (stereo not shown) [diethylaminoethyl 2-(ρ-isobutylphenyl)propionate. citric acid salt]
ibuprofen found in the milk [13]: 55 ± 8 µg/mL
ibuprofenamine found in the milk [13]: 10 ± 5 µg/mL

CCN(CC)CCOC(=O)c1ccccc1OC(C)=O.O=C(O)CC(O)(CC(=O)O)C(=O)O [diethylaminoethyl acetylsalicylate.citric acid]
MDA in the substantia nigra ([14]; control 13 ± 3, MPTP + water 21 ± 4): 14 ± 4 μmol/g protein
GSH in the substantia nigra ([14]; control 152 ± 12, MPTP + water 101 ± 17): 143 ± 13 μg/g protein
Stroke-free rats (3 hrs) ([15]; 3 hrs after operation (before treatment start)): 0/10
Stroke-free rats (2 day) ([15]; 2 day): 4/10
Weight Loss (3 days) ([15]; 3 days): −13 +/− 7%
Stroke-free rats (7 day) ([15]; 7 day): 9/10
Weight Loss (7 days) ([15]; 7 days): −7 +/− 4%
Stroke-free rats (14 days) ([15]; 14 days): 10/10
Weight Loss (14 days) ([15]; 14 days): −4 +/− 2%
MPTP-induced changes of GABA in striatum and SN ([16]; 30 mg/kg): reversed
GABA concentration, Striatum [16, 23]: 4.9 ± 1.6 μmol/g wet tissue
GABA concentration, Substantia nigra [16, 23]: 4.7 ± 0.5 μmol/g wet tissue
Glu concentration, Striatum [16, 23]: 26.5 ± 2.7
Glu concentration, Substantia nigra [16, 23]: 29.5 ± 2.4
Stroke-free rats (2 hours) [17]: 8/10
Stroke-free rats (1 day) [17]: 9/10
Stroke-free rats (7 days) [17]: 10/10
DA, NA, and 5-HT contents in the striatum ([18]; 30 mg/kg transdermally, vs MPTP model group, P<0.05): increased
5-HT concentration in the striatum [18, 24]: 302 ± 29
DA concentration in the striatum [18, 24]: 817 ± 89 μg/g wet tissue
NA concentration in the striatum [18, 24]: 602 ± 55

CCN(CC)CCOC(=O)c1ccccc1OC(C)=O.Cl [diethylaminoethyl acetylsalicylate•HCl]
Intraocular pressure, Base-line ([19]; base-line, prior to treatment, 30 mg/kg around the eye): 24.1 ± 0.7
Intraocular pressure, End of treatment (day10) ([19]; day 10, 30 mg/kg applied to the area around the eye for 10 days): 16.1 ± 0.5

Reference: patent US20210353579A1, “HIGH PENETRATION COMPOSITIONS AND USES THEREOF” (Techfields Pharma Co., Ltd., priority 2006, published 2021)
